Legend:
RAW264.7 = experiment: Antiinflammatory activity in mouse RAW264.7 cells assessed as inhibition of LPS-induced NO production measured after 18 hrs by Griess assay; assay type: functional, cell-based; settings: RAW264.7, 18 h
L02 = experiment: Cytotoxicity against human LO2 cells after 48 hrs by MTT assay; assay type: cell-based; settings: l02, 48 h
MDA-MB-231 = experiment: Cytotoxicity against human MDA-MB-231 cells after 48 hrs by MTT assay; assay type: functional, cell-based; settings: MDA-MB-231, 48 h
Hep 3B2 = experiment: Cytotoxicity against human Hep3B cells after 48 hrs by MTT assay; assay type: functional, cell-based
OVCAR = experiment: Cytotoxicity against human OVCAR cells after 48 hrs by MTT assay; assay type: functional, cell-based
HT-29 = experiment: Cytotoxicity against human HT-29 cells after 48 hrs by MTT assay; assay type: functional, cell-based; settings: HT-29, 48 h
HeLa = experiment: Cytotoxicity against human HeLa cells after 48 hrs by MTT assay; assay type: functional, cell-based

CC(C)C1=C2C[C@H](O)[C@H](C)C3=C(C(=O)CC3)[C@H](O)[C@@]2(C)CC1
IC50 (RAW264.7): > 40 µM

COC[C@@]1(O)CC[C@H]2[C@@H](C)[C@@H](O)CC3=C(C(C)C)CC[C@]3(C)[C@H]3O[C@@]231
Activity (L02): Non-Toxic
IC50 (MDA-MB-231): 25 to 38.2 µM
IC50 (Hep 3B2): 25 to 38.2 µM
IC50 (OVCAR): 25 to 38.2 µM
IC50 (HT-29): 25 to 38.2 µM
IC50 (HeLa): 25 to 38.2 µM
IC50 (RAW264.7): > 40 µM

COCC1=C2[C@@H](CC1)[C@@H](C)[C@@H](O)CC1=C(C(C)C)C(=O)C[C@]1(C)[C@H]2O
IC50 (RAW264.7): > 40 µM

CC(C)C1=C2C[C@@H]3O[C@@H]([C@H]4C(=O)CC[C@H]4[C@H]3C)[C@@]2(C)[C@@H](O)C1
Activity (L02): Non-Toxic
IC50 (MDA-MB-231): 25 to 38.2 µM
IC50 (Hep 3B2): 25 to 38.2 µM
IC50 (OVCAR): 25 to 38.2 µM
IC50 (HT-29): 25 to 38.2 µM
IC50 (HeLa): 25 to 38.2 µM
IC50 (RAW264.7): > 40 µM

CC(C)C1=C2C[C@H](O)[C@H](C)[C@@H]3CCC(=O)/C3=C/[C@@]2(C)[C@@H](O)C1
Activity (L02): Non-Toxic
IC50 (MDA-MB-231): 25 to 38.2 µM
IC50 (Hep 3B2): 25 to 38.2 µM
IC50 (OVCAR): 25 to 38.2 µM
IC50 (HT-29): 25 to 38.2 µM
IC50 (HeLa): 25 to 38.2 µM
IC50 (RAW264.7): > 40 µM

COCC1=C2[C@@H](CC1)[C@@H](C)[C@@H](O)CC1=C(C(C)C)CC[C@]1(C)[C@H]2O
Activity (L02): Non-Toxic
IC50 (MDA-MB-231): 25 to 38.2 µM
IC50 (Hep 3B2): 25 to 38.2 µM
IC50 (OVCAR): 25 to 38.2 µM
IC50 (HT-29): 25 to 38.2 µM
IC50 (HeLa): 25 to 38.2 µM
IC50 (RAW264.7): 24.3 µM

COCC1=C2C[C@@]3(C)C(=O)C=C(C(C)C)[C@]34C[C@H](O)[C@H](C)[C@@]2(CC1)O4
IC50 (RAW264.7): > 40 µM

Reference: ChEMBL document CHEMBL4622888, “Modified Fusicoccane-Type Diterpenoids from Alternaria brassicicola” (J Nat Prod, 2020)
